Reference: patent US9145411B2, “Substituted amino-pyrimidine derivatives” (Asana Biosciences, LLC, priority 2012, dated 2015)

Key:
PI3Kα (wild-type) = target: T1, PI3Kα (wild-type) (Homo sapiens, UniProt P42336); experiment: PI3 Kinase TR-FRET assay, PI3Kα (wild-type); type: biochemical; details: wild-type P110/P85α, 10 μM ATP
T1 construct: made in house; host or cells: SF9 insect cells
Description: The ability of compounds of the invention to inhibit PI3K activity was determined in a homogeneous TR-FRET assay using a PI3K assay kit (Millipore, USA; cat #33-016) according to manufacturer's instructions. PI3-Kinases (isoforms α, β, γ and δ) catalyze the phosphorylation of phosphatidylinositol, PIP2 to PIP3 in the presence of ATP and Mg^2+. The PIP3 product is detected by displacement of biotin-PIP3 from an energy transfer complex consisting of Europium labeled anti-GST monoclonal antibody, a GST-tagged PH domain, biotinylated PIP3 and Streptavidin-APC. Excitation of Europium in the complex results in an energy transfer to the APC and a fluorescence emission at 665 nm. The PIP3 product displaces biotin-PIP3 from the complex resulting in a loss of energy transfer and thus a decrease in signal.
To test for the ability of compounds to inhibit the activity of PI3Kα (wild-type), exemplary compounds of formula (I) were dissolved in DMSO and directly distributed into 384-well plates at a volume of 0.5 μL. 14.5 μL of P110/P85α/PIP2 mixture in buffer (obtained from the Millipore kit) containing MgCl2 (40 mM) and DTT (5 mM) was added to compound wells and incubated for 60 minutes at room temperature. P110/P85α was expressed in SF9 insect cells and purified nickel column extraction. Five ng of wild-type P110/P85α was used in the assay. The kinase reaction was started by the addition of ATP. The assay concentrations of both PIP2 and ATP were 10 μM. The reaction mixture was incubated for 30 minutes at room temperature and was terminated by the addition of stop mix and detection mix. Fluorescence was measured at 615 and 665 nm upon excitation at 340 nm in a Victor™ V5 fluorometer (Perkin Elmer, USA). The fluorescence emission ratio at 665 to 615 nm, proportional to the kinase activity, was plotted against the compound concentration to generate dose-response curves and IC50 values were determined using GraphPad Prism® 5 software.

mTOR kinase = target: T2, mTOR kinase (Homo sapiens, UniProt P42345); experiment: mTOR kinase TR-FRET assay; type: biochemical; details: 20 μM ATP
T2 construct: purchased Millipore, USA
Description: Compound inhibition for mTOR kinase was determined in a homogeneous TR-FRET assay using the Lance® ULight-p70 S6K (Thr 389) peptide (obtained from Perkin-Elmer). The ULight™-labeled synthetic peptide contains the amino acid residues surrounding Thr389 of human p70 S6K. The ULight-p70 S6K peptide is phosphorylated at Thr389 by mTOR. Phosphorylation motif: LGFTYVAP as substrate.
The compound dilution was carried out in 100% DMSO followed by a buffer dilution. The reaction buffer was HEPES (50 mM pH 7.5), EGTA (1 mM), MnCl2 (3 mM). Test compounds at various concentrations were pre-incubated with mTOR (Millipore, USA; 5 ng) for 60 min, and then the Lance® ULight-p70 S6K (Thr 389) peptide (50 nM) was added along with ATP (20 μM). After incubating the reaction mixture for 60 minutes at room temperature, the kinase reaction was terminated by the addition of EDTA (10 mM) followed by the addition of detection mix, i.e., 1 nM Eu-labeled anti-phospho-substrate antibody (Perkin Elmer, USA). The fluorescence emission at […] was measured upon excitation at 340 nm. IC50 values were subsequently determined using a sigmoidal dose-response curve (variable slope) in GraphPad Prism® 5 software.
Compounds of formula (I) caused inhibition of mTOR kinase activity as determined by this assay.

PC3 cells = experiment: XTT assay for cell viability, PC3 cells; type: cell-based; details: Homo sapiens, PC-3; PC3 cell proliferation, 96 hours
Description: Using a commercial kit from Sigma Aldrich (Catalog #X34251) and following its protocol, PC3 cells in the log phase of growth were employed and seeded at an optimal density of 1000 cell/well on to 96 well plates and incubated for 24 hours followed by the addition of compounds of formula (I) in serial dilutions. Compound dilutions were made in DMSO. The cells were incubated with the compounds of formula (I) for 96 hours and XTT tetrazolium dye (Sigma, USA) was subsequently added and incubated at 37° C. After the color formation, absorbance was measured at 465 nm in a Spectramax® Gemini spectrophotometer. EC50 values were calculated using a sigmoidal dose response curve fit in GraphPad Prism® v5 software. The tested compounds of formula (I) which caused inhibition of PC3 cell proliferation as determined by this assay protocol are shown in Table 2.

T2 sequence (P42345 1362-2549 limits assumed): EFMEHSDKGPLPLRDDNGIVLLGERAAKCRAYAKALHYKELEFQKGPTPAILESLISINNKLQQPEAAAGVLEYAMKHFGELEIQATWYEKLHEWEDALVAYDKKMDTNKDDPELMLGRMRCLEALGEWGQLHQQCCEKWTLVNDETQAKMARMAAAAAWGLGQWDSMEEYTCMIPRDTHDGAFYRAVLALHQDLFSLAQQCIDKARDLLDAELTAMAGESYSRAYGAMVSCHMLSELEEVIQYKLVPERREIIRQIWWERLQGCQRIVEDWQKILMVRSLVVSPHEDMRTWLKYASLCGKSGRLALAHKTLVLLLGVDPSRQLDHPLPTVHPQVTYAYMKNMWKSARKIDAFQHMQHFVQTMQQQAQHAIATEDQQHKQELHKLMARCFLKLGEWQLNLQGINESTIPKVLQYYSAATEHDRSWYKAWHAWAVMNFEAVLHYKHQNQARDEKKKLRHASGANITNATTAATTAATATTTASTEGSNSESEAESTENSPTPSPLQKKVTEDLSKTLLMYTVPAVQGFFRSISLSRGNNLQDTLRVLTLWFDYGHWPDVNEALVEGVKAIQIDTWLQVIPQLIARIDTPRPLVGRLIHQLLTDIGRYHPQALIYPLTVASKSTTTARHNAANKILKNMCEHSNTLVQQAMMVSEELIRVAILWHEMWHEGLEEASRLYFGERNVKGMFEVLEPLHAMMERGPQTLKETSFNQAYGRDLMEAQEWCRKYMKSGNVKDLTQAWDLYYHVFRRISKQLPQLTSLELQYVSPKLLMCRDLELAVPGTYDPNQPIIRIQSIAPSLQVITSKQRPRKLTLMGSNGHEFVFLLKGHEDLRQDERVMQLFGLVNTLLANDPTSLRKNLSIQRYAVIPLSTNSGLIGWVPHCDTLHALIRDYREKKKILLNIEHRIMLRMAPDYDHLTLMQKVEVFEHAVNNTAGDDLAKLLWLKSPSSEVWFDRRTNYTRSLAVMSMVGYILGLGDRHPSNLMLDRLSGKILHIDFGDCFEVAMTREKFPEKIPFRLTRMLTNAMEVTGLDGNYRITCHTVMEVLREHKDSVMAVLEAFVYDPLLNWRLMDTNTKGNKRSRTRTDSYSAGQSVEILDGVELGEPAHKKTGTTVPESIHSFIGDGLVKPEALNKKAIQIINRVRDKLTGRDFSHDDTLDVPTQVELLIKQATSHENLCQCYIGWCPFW
T1 sequence (P42336 whole entry, species assumed): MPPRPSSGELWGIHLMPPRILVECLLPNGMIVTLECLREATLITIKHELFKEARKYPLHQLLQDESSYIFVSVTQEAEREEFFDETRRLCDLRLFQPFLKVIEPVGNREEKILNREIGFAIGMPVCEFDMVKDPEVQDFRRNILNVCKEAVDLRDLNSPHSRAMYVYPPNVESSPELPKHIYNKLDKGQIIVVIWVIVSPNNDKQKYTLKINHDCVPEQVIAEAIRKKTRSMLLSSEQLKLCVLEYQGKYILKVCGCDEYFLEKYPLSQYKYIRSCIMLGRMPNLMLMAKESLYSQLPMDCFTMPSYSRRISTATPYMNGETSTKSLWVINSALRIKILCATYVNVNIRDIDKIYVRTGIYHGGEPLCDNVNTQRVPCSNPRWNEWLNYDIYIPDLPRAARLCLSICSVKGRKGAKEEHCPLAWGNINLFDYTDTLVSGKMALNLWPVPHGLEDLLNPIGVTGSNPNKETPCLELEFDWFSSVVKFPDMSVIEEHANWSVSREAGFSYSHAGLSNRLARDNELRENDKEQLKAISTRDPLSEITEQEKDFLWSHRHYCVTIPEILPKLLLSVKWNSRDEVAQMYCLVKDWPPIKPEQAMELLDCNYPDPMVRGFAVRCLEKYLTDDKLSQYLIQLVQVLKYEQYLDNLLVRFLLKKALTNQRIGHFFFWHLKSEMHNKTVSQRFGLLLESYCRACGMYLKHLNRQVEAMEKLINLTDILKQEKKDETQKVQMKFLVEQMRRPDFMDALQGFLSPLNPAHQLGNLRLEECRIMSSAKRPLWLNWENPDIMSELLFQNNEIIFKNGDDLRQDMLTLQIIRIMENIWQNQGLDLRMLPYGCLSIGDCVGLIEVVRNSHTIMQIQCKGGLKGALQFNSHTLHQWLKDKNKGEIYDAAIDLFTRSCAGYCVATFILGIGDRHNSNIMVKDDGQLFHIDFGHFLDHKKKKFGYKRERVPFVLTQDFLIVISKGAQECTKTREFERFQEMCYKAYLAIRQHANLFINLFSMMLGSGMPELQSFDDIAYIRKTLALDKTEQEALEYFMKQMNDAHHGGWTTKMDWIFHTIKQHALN
T1 sequence (P27986 whole entry partner, species assumed): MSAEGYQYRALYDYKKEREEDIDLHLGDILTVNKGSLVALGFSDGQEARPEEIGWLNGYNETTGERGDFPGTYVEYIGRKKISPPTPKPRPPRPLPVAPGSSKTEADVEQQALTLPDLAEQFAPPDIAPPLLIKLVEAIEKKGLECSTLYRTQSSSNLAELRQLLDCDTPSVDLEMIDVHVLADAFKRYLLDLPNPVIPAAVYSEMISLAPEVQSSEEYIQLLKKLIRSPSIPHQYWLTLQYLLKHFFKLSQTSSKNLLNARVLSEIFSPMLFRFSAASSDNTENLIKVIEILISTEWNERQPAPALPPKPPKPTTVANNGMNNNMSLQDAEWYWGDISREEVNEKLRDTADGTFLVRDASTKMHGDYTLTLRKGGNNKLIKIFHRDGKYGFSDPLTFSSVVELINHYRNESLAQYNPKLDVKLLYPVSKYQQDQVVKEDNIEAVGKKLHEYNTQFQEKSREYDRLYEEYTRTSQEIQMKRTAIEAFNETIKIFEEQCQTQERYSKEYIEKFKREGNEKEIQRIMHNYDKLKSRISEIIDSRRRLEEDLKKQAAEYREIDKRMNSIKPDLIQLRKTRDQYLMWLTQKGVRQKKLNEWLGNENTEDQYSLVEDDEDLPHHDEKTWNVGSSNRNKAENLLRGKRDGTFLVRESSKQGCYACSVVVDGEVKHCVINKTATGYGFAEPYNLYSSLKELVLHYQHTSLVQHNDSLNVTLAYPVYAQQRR

IC50 (PI3Kα (wild-type)) | IC50 (mTOR kinase) | IC50 (PC3 cells) | SMILES
< 50 nM | < 50 nM | < 100 nM | Nc1ncc(-c2nc(N3CCOCC3)c3ncc(-c4ccc(C(=O)NC5CC5)cc4)cc3n2)cn1 [Example 4, 4-(2-(2-Aminopyrimidin-5-yl)-4-morpholinopyrido[3,2-d]pyrimidin-7-yl)-N-cyclopropylbenzamide]
– | – | 501 to 5000 nM | Nc1ncc(-c2nc(N3CCOCC3)c3ncc(-c4ccc(C(=O)N5CCC(O)CC5)cc4)cc3n2)cn1 [Example 39, (4-(2-(2-aminopyrimidin-5-yl)-4-morpholino-pyrido[3,2-d]pyrimidin-7-yl)phenyl)(4-hydroxy-piperidin-1-yl)methanone]
– | – | 100 to 500 nM | Nc1ncc(-c2nc(N3CCOCC3)c3ncc(-c4cccc(C(=O)N5CCC(O)CC5)c4)cc3n2)cn1 [Example 40, (3-(2-(2-aminopyrimidin-5-yl)-4-morpholino-pyrido[3,2-d]pyrimidin-7-yl)phenyl)(4-hydroxy-piperidin-1-yl)methanone]
– | – | > 1000 nM | Cc1cc(C(=O)Nc2ccc(-c3cnc4c(N5CCOCC5)nc(-c5cnc(N)nc5)nc4c3)cc2)[nH]n1 [Example 80, N-(4-(2-(2-amino-pyrimidin-5-yl)-4-morpholinopyrido[3,2-d]pyrimidin-7-yl)phenyl)-3-methyl-1H-pyrazole-5-carboxamide]
50 to 200 nM | 50 to 200 nM | – | Nc1ncc(-c2nc(N3CCOCC3)c3ccc(-c4cccc(NC(=O)N5CCOCC5)c4)cc3n2)cn1 [Example 88, N-(3-(2-(2-amino-pyrimidin-5-yl)-4-morpholinoquinazolin-7-yl)phenyl)morpholine-4-carboxamide]
201 to 10000 nM | 201 to 10000 nM | – | CC(O)C(=O)N1CCN(Cc2ccc3c(N4CCOCC4)nc(-c4cnc(N)nc4)nc3c2)CC1 (stereo not drawn) [Example 90, 1-(4-((2-(2-aminopyrimidin-5-yl)-4-morpholinoquinazolin-7-yl)methyl)piperazin-1-yl)-2-hydroxypropan-1-one]
201 to 10000 nM | 201 to 10000 nM | – | CC(C)(O)C(=O)N1CCN(Cc2ccc3c(N4CCOCC4)nc(-c4cnc(N)nc4)nc3c2)CC1 [Example 91, 1-(4-((2-(2-amino-pyrimidin-5-yl)-4-morpholinoquinazolin-7-yl)methyl)piperazin-1-yl)-2-hydroxy-2-methyl-propan-1-one]
201 to 10000 nM | 201 to 10000 nM | – | CC(=O)N1CCN(Cc2ccc3c(N4CCOCC4)nc(-c4cnc(N)nc4)nc3c2)CC1 [Example 92, 1-(4-((2-(2-amino-pyrimidin-5-yl)-4-morpholinoquinazolin-7-yl)methyl)piperazin-1-yl)ethanone]
201 to 10000 nM | 201 to 10000 nM | – | CC(=O)NC1CCN(Cc2ccc3c(N4CCOCC4)nc(-c4cnc(N)nc4)nc3c2)CC1 [Example 93, N-(1-((2-(2-amino-pyrimidin-5-yl)-4-morpholinoquinazolin-7-yl)methyl)piperidin-4-yl)-acetamide]
50 to 200 nM | 201 to 10000 nM | – | Nc1ncc(-c2nc(N3CCOCC3)c3ncc(CN4CCNCC4)cc3n2)cn1 [Example 94, 5-(4-morpholino-7-(piperazin-1-yl-methyl)pyrido[3,2-d]-pyrimidin-2-yl)pyrimidin-2-amine]
< 50 nM | < 50 nM | – | CS(=O)(=O)Nc1cncc(-c2cnc3c(N4CCOCC4)nc(-c4cnc(N)nc4)nc3c2)c1 [Example 96, N-(5-(2-(2-amino-pyrimidin-5-yl)-4-morpholinopyrido[3,2-d]-pyrimidin-7-yl)pyridin-3-yl)methanesulfonamide]
– | 50 to 200 nM | 100 to 500 nM | CN1CCN(C(=O)c2cccc(-c3cnc4c(N5CCOCC5)nc(-c5cnc(N)nc5)nc4c3)c2)CC1 [Example 110, (3-(2-(2-aminopyrimidin-5-yl)-4-morpholinopyrido[3,2-d]-pyrimidin-7-yl)phenyl)(4-methylpiperazin-1-yl)-methanone]
< 50 nM | < 50 nM | – | CN(C)CC(=O)N1CCN(c2cccc(-c3cnc4c(N5CCOCC5)nc(-c5cnc(N)nc5)nc4c3)c2)CC1 [Example 112, 1-(4-(3-(2-(2-amino-pyrimidin-5-yl)-4-morpholinopyrido[3,2-d]pyrimidin-7-yl)-phenyl)piperazin-1-yl)-2-(dimethylamino)ethanone]
